Literature values in patent US6369115B1, “Stabilized powder formulations” (Dura Pharmaceuticals, Inc., priority 2000, dated 2002).

Structure (SMILES) | solubility in water
CCC(=O)O[C@]1(C(=O)SCF)[C@H](C)C[C@H]2[C@@H]3C[C@H](F)C4=CC(=O)C=C[C@]4(C)[C@@]3(F)[C@@H](O)C[C@@]21C [fluticasone propionate, (6 alpha, 11 beta, 16 alpha, 17 alpha)-6,9,-difluoro-11-hydroxy-16-methyl-3-oxo-17-(1-oxopropoxy)androsta-1,4-diene-17-carbothioic acid, S-fluoromethyl ester] | insoluble in water
COc1ccc(CC(C)NCC(O)c2ccc(O)c(NC=O)c2)cc1 (centres unmarked) [Formoterol, N-[2-hydroxy-5-[1-hydroxy-2-[[2-(4-methoxyphenyl)-1-methylethyl]amino]ethyl]phenyl]formamide] | soluble in water
